In the supplement of paper PMC4862054:

Key:
[1] = system: BT-549; assay: normalised viability (% of control), CellTiter-Blue; higher = more viable cells (about 100 = DMSO control); conditions: 1000 nM; incubation time: 72 h
Summary of the method: (§1)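 The reported figure is normalised viability at a single listed concentration of the series. Breast cancer cell lines (20 µl suspension) went onto 384-well plates holding compound in 5 µl medium for 72 h. CellTiter-Blue (2.5 µl, 2 h, 37 °C) was read by fluorescence at 560/590 nm, and each plate was scaled to vehicle at 100 and a positive kill control at 0.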

[2] = system: CAL-148; assay: as above; conditions: 30 nM; incubation time: 72 h
Summary of the method: as §1

[3] = system: MDA-MB-453; assay: as above; conditions: 30 nM; incubation time: 72 h
Summary of the method: as §1

[4] = system: MFM-223; assay: as above; conditions: 1000 nM; incubation time: 72 h
Summary of the method: as §1

[5] = system: Hs578T; assay: as above; conditions: 1000 nM; incubation time: 72 h
Summary of the method: as §1

[6] = system: HCC1937; assay: as above; conditions: 1000 nM; incubation time: 72 h
Summary of the method: as §1

[7] = system: MDA-MB-468; assay: as above; conditions: 1000 nM; incubation time: 72 h
Summary of the method: as §1

[8] = system: HCC1599; assay: as above; conditions: 1000 nM; incubation time: 72 h
Summary of the method: as §1

[9] = system: CAL-120; assay: as above; conditions: 1000 nM; incubation time: 72 h
Summary of the method: as §1

[10] = system: MDA-MB-436; assay: as above; conditions: 1000 nM; incubation time: 72 h
Summary of the method: as §1

[11] = system: BT-474; assay: as above; conditions: 1000 nM; incubation time: 72 h
Summary of the method: as §1

[12] = system: SK-BR-3; assay: as above; conditions: 1000 nM; incubation time: 72 h
Summary of the method: as §1

[13] = system: CAL-51; assay: as above; conditions: 30 nM; incubation time: 72 h
Summary of the method: as §1

[14] = system: HCC1143; assay: as above; conditions: 1000 nM; incubation time: 72 h
Summary of the method: as §1

[15] = system: BT-549; assay: drug sensitivity score (DSS), CellTiter-Glo (DSS (AUC-based score)); higher = stronger drug effect (viability inhibition or cytotoxicity); extreme values may be limits of the assay; conditions: incubation time: 72 h
Summary of the method: (§2)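 The drug sensitivity score reflects the area under a fitted dose-response curve. To obtain it, breast cancer cells in 20 µl suspension were seeded into 384-well plates containing compound at 5 concentrations, 10-fold apart over a compound-specific 10,000-fold range, and incubated 72 h. CellTox Green fluorescence (485/520 nm) was read first and CellTiter-Glo luminescence second, after 10 min at room temperature. Each plate was normalised to 0.1 % DMSO and a positive kill control.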

[16] = system: CAL-148; assay: as above; conditions: incubation time: 72 h
Summary of the method: as §2

[17] = system: MDA-MB-468; assay: as above; conditions: incubation time: 72 h
Summary of the method: as §2

[18] = system: CAL-85-1; assay: as above; conditions: incubation time: 72 h
Summary of the method: as §2

[19] = system: BT-474; assay: as above; conditions: incubation time: 72 h
Summary of the method: as §2

[20] = system: SK-BR-3; assay: as above; conditions: incubation time: 72 h
Summary of the method: as §2

[21] = system: MCF-10A; assay: as above; conditions: incubation time: 72 h
Summary of the method: as §2

[22] = system: HDQ-P1; assay: as above; conditions: incubation time: 72 h
Summary of the method: as §2

[23] = system: BT-549; conditions: 72 h
Summary of the method: (§3)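 Two sequential readouts followed a 72 h incubation of breast cancer cell lines with compound at 5 concentrations in 10-fold steps over a compound-specific 10,000-fold range: CellTox Green fluorescence (485/520 nm) for cell death, then CellTiter-Glo luminescence, after 10 min at room temperature, for viability. Each plate was normalised to 0.1 % DMSO and a positive kill control. Dose-response curves were fitted for EC50, censored at the top concentration.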

[24] = system: Hs578T; conditions: 72 h
Summary of the method: as §3

[25] = system: HCC1937; conditions: 72 h
Summary of the method: as §3

[26] = system: MDA-MB-468; conditions: 72 h
Summary of the method: as §3

[27] = system: CAL-85-1; conditions: 72 h
Summary of the method: as §3

[28] = system: CAL-120; conditions: 72 h
Summary of the method: as §3

[29] = system: MDA-MB-231; conditions: 72 h
Summary of the method: as §3

[30] = system: MDA-MB-436; conditions: 72 h
Summary of the method: as §3

[31] = system: BT-474; conditions: 72 h
Summary of the method: as §3

[32] = system: SK-BR-3; conditions: 72 h
Summary of the method: as §3

[33] = system: MCF-10A; conditions: 72 h
Summary of the method: as §3

[34] = system: CAL-51; conditions: 72 h
Summary of the method: as §3

[35] = system: MDA-MB-453; conditions: 72 h
Summary of the method: as §3

## CN(C)CCN1C(=O)c2cccc3cc(N)cc(c23)C1=O [Amonafide]
[1]
  normalised viability: 102%
[2]
  normalised viability: 85.8%
[3]
  normalised viability: 85.7%
[4]
  normalised viability: 99.3%
[5]
  normalised viability: 115%
[6]
  normalised viability: 69.2%
[7]
  normalised viability: 106%
[8]
  normalised viability: 101%
[9]
  normalised viability: 78.7%
[10]
  normalised viability: 95.7%
[11]
  normalised viability: 108%
[12]
  normalised viability: 98.7%
[13]
  normalised viability: 102%
[14]
  normalised viability: 86.3%
[15]
  drug sensitivity score: 2.93
[16]
  drug sensitivity score: 4.44
[17]
  drug sensitivity score: 2.59
[18]
  drug sensitivity score: 2.16
[19]
  drug sensitivity score: 5.06
[20]
  drug sensitivity score: 3.61
[21]
  drug sensitivity score: 2.36
[22]
  drug sensitivity score: 0
[23]
  EC50, CellTiter-Glo: 3270 nM
[24]
  EC50, CellTiter-Glo: 1920 nM
[25]
  EC50, CellTiter-Glo: > 10000 nM
[26]
  EC50, CellTiter-Glo: 7.96 µM
[27]
  EC50, CellTiter-Glo: 9.24 µM
[28]
  EC50, CellTiter-Glo: 2700 nM
[29]
  EC50, CellTiter-Glo: 2840 nM
[30]
  EC50, CellTiter-Glo: 7.37 µM
[31]
  EC50, CellTiter-Glo: 1660 nM
[32]
  EC50, CellTiter-Glo: 5430 nM
[33]
  EC50, CellTiter-Glo: 8.42 µM
[34]
  EC50, CellTiter-Glo: 5570 nM

## NS(=O)(=O)OC[C@@H]1C[C@@H](n2ccc3c(N[C@H]4CCc5ccccc54)ncnc32)C[C@@H]1O [Pevonedistat]
[15]
  drug sensitivity score: 15.3
[16]
  drug sensitivity score: 0
[17]
  drug sensitivity score: 17.8
[18]
  drug sensitivity score: 11.9
[19]
  drug sensitivity score: 7.25
[20]
  drug sensitivity score: 21.7
[21]
  drug sensitivity score: 0
[22]
  drug sensitivity score: 2.51
[23]
  EC50, CellTiter-Glo: 168 nM
[35]
  EC50, CellTiter-Glo: 780 nM
[24]
  EC50, CellTiter-Glo: 679 nM
[25]
  EC50, CellTiter-Glo: 2940 nM
[26]
  EC50, CellTiter-Glo: 0.0685 µM
[27]
  EC50, CellTiter-Glo: 0.191 µM
[28]
  EC50, CellTiter-Glo: 448 nM
[29]
  EC50, CellTiter-Glo: 953 nM
[30]
  EC50, CellTiter-Glo: 0.294 µM
[31]
  EC50, CellTiter-Glo: 769 nM
[32]
  EC50, CellTiter-Glo: 25.7 nM
[34]
  EC50, CellTiter-Glo: 91.2 nM
